Values quoted from earlier work as cited in patent US20040009962A1, “Combined estrogen blockade of the breast with exemestane and raloxifene” (priority 2000, published 2004).
Like-named read-outs stand apart in the source and are kept apart here.

Legend:
metastatic breast cancer [1] = details: 25 mg/day
metastatic breast cancer [2] = system: metastatic breast cancer
rats [3] = system: rats
[4] = system: plasma estrogen levels (E2, E1, E1S); details: suppression of E2, E1 and E1S, postmenopausal women
[5] = Ames, V79, E. coli, DNA repair on rat hepatocytes, micronucleus, in vivo and in vitro chromosome aberration
[6] = system: 7, 12-dimethyl-benzanthracene (DMBA)-induced mammary tumors; details: rats
[7] = except at relatively high doses
[8] = system: DMBA-induced rat mammary tumor; details: DMBA-induced rat mammary tumor model
metastatic breast cancer [9] = details: 25 mg/day orally, 241 women
whole body aromatization = details: 10 postmenopausal women with advanced breast cancer
[10] = deep vein thrombosis, pulmonary embolism, retinal vein thrombosis
healthy men = details: 200 mg/day orally
endometrium = details: baseline vs 8 weeks of treatment
metastatic breast cancer [11] = details: 200 mg/day
rats [12] = system: rats; remark: listed apart in the source
[13] = system: healthy postmenopausal women
[14] = system: DMBA- and NMN-induced mammary carcinogenesis; details: may be less when compared with tamoxifen
metastatic breast cancer [15] = system: metastatic breast cancer; remark: listed apart in the source
[16] = system: MCF-7 breast cancer cells; details: estrogen deficient state vs supplemented with estrogen
[17] = system: early stage breast cancer
[18] = all doses, interim analysis, vs placebo

## C=C1C[C@@H]2[C@H](CC[C@]3(C)C(=O)CC[C@@H]23)[C@@]2(C)C=CC(=O)C=C12 [exemestane, Exemestane]
Metastatic breast cancer [1]; 87 women, 95% CI 6-20
  overall response rate: 11%
Metastatic breast cancer [1]; additional patients
  SD>6 months: 17.2%
Metastatic breast cancer [2]; 25 mg
  overall success rate (CR+PR+SD>6 months): 47%
Metastatic breast cancer [2]; 25 mg, 128 postmenopausal women, 95% CI 21-37
  overall response rate (CR+PR): 28%
Metastatic breast cancer [2]; 88 patients who had measurable disease
  overall response rate (CR+PR): 34%
Metastatic breast cancer [2]; 95% CI 11-20 months
  median duration of response: 14 months
Metastatic breast cancer [2]; patients with visceral disease
  overall response rate: 33%
Metastatic breast cancer [2]; treated population
  stable disease>6 months: 19%
Human lymphocytes
  concentration from which the chromosome aberration test was positive: ≥ 12000 ng/mL
Rats [3]
  embryotoxic dose: ≥ 50 mg/kg
  teratogenicity: not teratogenic
[4]
  dose at which inhibition of plasma estrogen levels became apparent: about 1 mg
[5]
  genotoxic potential, all tests except chromosome aberration in human lymphocytes: negative
[6]
  efficacy against DMBA-induced mammary tumors: highly effective
[7]
  tolerability: good tolerability
rabbits
  embryotoxic dose: ≥ 270 mg/kg
  teratogenicity: not teratogenic
[8]
  appearance of new tumors: reduced
  objective response rate: 44%
Metastatic breast cancer [9]
  overall success rate (CR+PR+SD>6 months): 25%
Metastatic breast cancer [9]; third- and fourth-line
  overall objective response rate: 7%
Whole body aromatization
  mean suppression of whole body aromatization: 97.9%
Whole body aromatization; pretreatment 2.059%
  whole body aromatization on treatment (mean): 0.042%

## O=C(c1ccc(OCCN2CCCCC2)cc1)c1c(-c2ccc(O)cc2)sc2cc(O)ccc12 [raloxifene, Raloxifene]
Postmenopausal women; p=0.232
  relative risk of endometrial cancer: 0.38
Postmenopausal women; raloxifene 60 or 120 mg/day vs controls
  risk reduction of breast cancer: 58%
Postmenopausal women; two cases diagnosed within one month of randomization excluded, p=0.045
  relative risk of endometrial cancer: 0.13
[10]
  risk of venous thromboembolic events: increased risk
Healthy men
  response to exogenous estrogen (anti-estrogen effect): blunt
Rat uterus; administered alone
  agonist activity on the rat uterus: little agonist activity
Rat uterus; immature rat
  uterotropic action of estradiol: inhibits
Ovariectomized rat
  bone mineral density: increases
  serum cholesterol: decreases
endometrium
  change in the endometrium on uterine biopsy: no change
Metastatic breast cancer [11]; 14 patients
  tolerability: well tolerated
Metastatic breast cancer [11]; tamoxifen-refractory group
  objective responses: no objective responses
Rats [12]
  DNA adducts or hepatocarcinogenesis: no reports
[13]; [18]
  bone mineral density in the hip, spine, femur and total body: increase
  markers of bone turnover: decrease
[13]; in vivo
  HDL cholesterol: unchanged
  serum total and LDL cholesterol: significantly decreased
  side effects: increased hot flashes and leg cramps
  tolerability: well tolerated
[13]; transvaginal ultrasound, any treatment group
  endometrial thickness: unaffected
[14]
  anti-tumor activity: anti-tumor activity

## CC/C(=C(\c1ccccc1)c1ccc(OCCN(C)C)cc1)c1ccccc1 [tamoxifen, Tamoxifen]
Metastatic breast cancer [15]; premenopausal women, metastatic breast cancer
  response rates: 20 to 45%
Metastatic breast cancer [15]; unselected postmenopausal women with metastatic disease
  objective response rates: 30 to 40%
Metastatic breast cancer [15]; women with ER-positive and PR-positive tumors
  response rates: 60-70%
[16]
  tumor mitotic rate: marked reduction
[8]
  appearance of new tumors: reduced
  objective response rate: 29%
[17]; adjuvant therapy, premenopausal and postmenopausal women
  annual rates of recurrence and mortality: reduce
[17]; five years of adjuvant tamoxifen vs no adjuvant therapy
  reduction of the risk of contralateral breast cancer: 47%

## estrogen
endometrium
  change in the endometrium on uterine biopsy: significant endometrial stimulation
